Experimental data published in patent publication US20090028804A1, “AhR mediators” (SYMRISE GmbH & Co. KG, priority 2005, published 2009).
Read-outs that look alike come from different tables or passages of the source. One block for each compound: values may come before it.

Columns and labels:
AhR [1] = biological target: T1, AhR (Homo sapiens, UniProt P35869); details: human breast epithelium cells; cited from earlier work
T1 sequence (P35869 11-848): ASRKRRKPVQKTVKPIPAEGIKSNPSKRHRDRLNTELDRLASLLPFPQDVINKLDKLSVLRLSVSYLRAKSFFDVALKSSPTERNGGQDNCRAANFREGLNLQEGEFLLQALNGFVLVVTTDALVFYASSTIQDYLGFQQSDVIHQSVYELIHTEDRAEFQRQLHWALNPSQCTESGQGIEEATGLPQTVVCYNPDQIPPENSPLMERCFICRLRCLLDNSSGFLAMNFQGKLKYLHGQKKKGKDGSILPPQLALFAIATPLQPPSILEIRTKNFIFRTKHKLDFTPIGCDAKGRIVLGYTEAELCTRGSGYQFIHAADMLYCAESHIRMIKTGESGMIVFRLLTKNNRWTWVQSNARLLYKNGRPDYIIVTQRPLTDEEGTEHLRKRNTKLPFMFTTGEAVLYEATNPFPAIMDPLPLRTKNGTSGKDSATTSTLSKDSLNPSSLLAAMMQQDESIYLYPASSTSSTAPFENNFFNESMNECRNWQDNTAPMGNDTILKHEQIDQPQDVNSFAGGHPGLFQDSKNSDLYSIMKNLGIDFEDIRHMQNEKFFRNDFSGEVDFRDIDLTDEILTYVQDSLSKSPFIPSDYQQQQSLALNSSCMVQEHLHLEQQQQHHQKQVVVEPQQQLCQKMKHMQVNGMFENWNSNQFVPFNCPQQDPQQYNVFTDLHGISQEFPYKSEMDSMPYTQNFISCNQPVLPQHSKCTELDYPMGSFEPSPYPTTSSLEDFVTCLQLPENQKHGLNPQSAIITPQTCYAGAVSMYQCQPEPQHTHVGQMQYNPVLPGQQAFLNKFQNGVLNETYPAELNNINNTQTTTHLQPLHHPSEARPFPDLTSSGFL

[2] = Photostability on irradiation with UVB radiation; format: physicochemical; details: photostable = no more than 10 mol % converted on UVB (40 W/m^2) for 2 hours
Method: For the purposes of the present invention, a photostable substance is one which, on irradiation with UVB radiation (40 W/m^2) for 2 hours, is no more than 10 mol % converted into one or more other substances. All-trans-retinoic acid, for example, is accordingly not a preferred AhR antagonist, as this substance is photolabile.

MMP-1 = details: cited from earlier work
AhR [3] = biological target: T1, AhR; set-up: host or cells: oral human keratinocyte cancer cells; details: cited from earlier work
CYP1A1 = experiment: UVB-induced CYP1A1 induction in HaCaT keratinocytes, real time RT-PCR; format: cell-based, human
Method: (§1) HaCaT keratinocytes were cultured in DMEM medium with 10% fetal calf serum. The cells were irradiated with UVB radiation in PBS (phosphate-buffered saline). For UVB irradiation, we used a TL20W/12RS lamp which contains four parallel tubes (Philips, Eindhoven, Netherlands) and emits the majority of its energy in the UVB range (290-320 nm). The emission peak of the lamp is at 310 nm. Control cells were subjected to identical treatment, but were not irradiated. In order to inhibit the AhR, the cells were treated with the test substance 1 h before irradiation.
HaCaT cells were irradiated with 100 J/m^2 of UVB. Some cells were pretreated with the test substance 1 h before irradiation. After 4 h, the RNA was prepared using the RNeasy kit (Qiagen, Hilden, Germany) in accordance with the manufacturer's instructions. Reverse transcription was carried out as described (Arch. Toxicol (2005) PMID 16205913). PCR fragments were amplified by means of real-time PCR in a LightCycler (Roche, Mannheim, Germany). The PCR mix was made up of 1/10 volume of QuantiTec® SYBR Green PCR Master Mixes F (Qiagen, Hilden, Germany), 0.5 μM of the particular primer, 2 μl of cDNA and DEPC-treated (diethyl pyrocarbonate-treated) H2O in a final volume of 20 μl. […] PCR conditions were as follows: 40 cycles of 15 sec 94° C. for denaturation, 25 sec 60° C. for primer attachment, 30 sec 72° C. for extension and 2 sec 72° C. for fluorescence measurement. […] The PCR products were quantified by means of a fragment-specific standard curve and analysis with LightCycler Software 3. […]
HaCaT cells were irradiated with 100 J/m^2 of UVB. […] The PCR mix was made up of 1/10 volume of QuantiTect® SYBR Green PCR Master Mixes (Qiagen, Hilden, Germany), 0.5 μM of the particular primer, 2 μl of cDNA and DEPC-treated (diethyl pyrocarbonate-treated) H2O in a final volume of 20 μl. […] PCR conditions were as follows: 40 cycles of 15 sec 94° C. for denaturation, 25 sec 60° C. for primer attachment, 30 sec 72° C. for extension and 2 sec 72° C. for fluorescence measurement. […]

AhR [4] = biological target: T1, AhR; experiment: AhR translocation into the cell nucleus in HaCaT cells transfected with pEGFP-AhR plasmid; format: cell-based; set-up: host or cells: oral human keratinocyte cancer cells
Method: as §1
HaCaT cells were plated out onto chambered microscope slides with a cell density of 5×10^4 cells/chamber. Some were pretreated with the test substance for 1 h. After 24 h, said cells were transfected with the pEGFP-AhR plasmid by means of the FuGene 6 transfection reagent (Roche, Mannheim, Germany) in accordance with the manufacturer's instructions After a further 24 h, transfected cells were irradiated with […] of UVB. After 40 min, the cells were fixed for 10 min with 4% paraformaldehyde and washed with PBS. The microscope slides were dried and mounted with Vectashield Mounting Medium (Vector Laboratories, Burlingame, Calif., USA). The AhR coupled to the GFP was visualized by means of a fluorescence microscope (Olympus, Hamburg, Germany) and photographed with a ColorViewXS digital camera (Olympus).

AhR [5] = biological target: T1, AhR; details: human breast cancer cell line MCF-7; cited from earlier work
AhR [6] = biological target: T1, AhR; details: human liver cancer cell line HepG2; cited from earlier work
[7] = test system: primary mouse melanocytes; experiment: Melanin content of primary mouse melanocytes, photometric at 405 nm; format: cell-based
Method: The cells were removed, lysed with 0.1% Triton-X100, centrifuged and the melanin content from the lysate pellet was determined photometrically in an ELISA reader at 405 nm after cell disruption with 1M NH4OH (4 h, 85° C.). The blank reading, which contained only NH4OH, was subtracted from the absorption value. In parallel, the protein content of the lysate supernatants was determined by the Bradford method.
Semiconfluent primary mouse melanocytes (culture conditions as above) were further cultured for 7 days with 10 μM MNF. The cells were removed, lysed with 0.1% Triton-X100, centrifuged and the melanin content from the lysate pellet was determined photometrically in an ELISA reader at 405 nm after cell disruption with 1M NH4OH (4 h, 85° C.). The blank reading, which contained only NH4OH, was subtracted from the absorption value.

AhR [8] = biological target: T1, AhR; experiment: AhR translocation in primary mouse melanocytes transfected with pEGFP-AhR plasmid; format: cell-based; set-up: expressed in transfected cells; host or cells: primary mouse melanocytes; details: in the presence and absence of benzo[a]pyrene
Method: Primary mouse melanocyte cells were plated out onto chambered microscope slides. Individual chambers were treated for 1 h with the test substances. After 24 h, the cells were transfected with the pEGFP-AhR plasmid. After a further 40 min, the cells were fixed. The microscope slides were evaluated by fluorescence microscopy. Translocation of the AhR, which is coupled to the GFP and thus fluoresces green, from the cytoplasm into the cell nucleus is visible.

[9] = in the absence of UVB radiation

Compound: O=C1c2ccccc2-c2n[nH]c3cccc1c23 [anthra[1,9-cd]pyrazol-6(2H)-one]
action of the AhR agonist TCDD (AhR [1]): capable of inhibiting the action

photostability [2]: photolabile
Compound: CC1=C(/C=C/C(C)=C/C=C/C(C)=C/C(=O)O)C(C)(C)CCC1 [All-trans-retinoic acid]
TCDD-induced expression of MMP-1 (MMP-1): enhancing TCDD-induced expression of MMP-1
AhR activity (AhR [3]; in the absence of TCDD): without influencing AhR activity
TCDD-induced AhR activation (AhR [3]; normal human keratinocytes): inhibits TCDD-induced AhR activation

CYP1A1 inhibition in the presence of UVB light (CYP1A1; 0.0001 wt. %, HaCaT, 100 J/m^2 UVB, relative to control (PBS without test substances with 0.1% DMSO, UVB-irradiated)): 20%
induction of CYP1A1 as a result of AhR activation in the presence of UVB light (CYP1A1; HaCaT, UVB light): inhibited induction of CYP1A1
induction of an AhR-inducible gene, in particular CYP1A1, by the compound itself (CYP1A1; [9]): does not itself bring about induction
translocation of AhR from the cytoplasm into the cell nucleus induced by the compound itself (AhR [4]; [9]): do not induce translocation of AhR
Compound: C/C=C/c1cc(OC)c2c(c1)C(C)C(c1ccc(O)c(OC)c1)O2 (stereo not drawn) [Compound (X)]

Compound: O=c1c(O)c(-c2ccc(O)c(O)c2)oc2cc(O)cc(O)c12 [quercetin]
action of AhR (AhR [5]): prevents the action of AhR
action of AhR (AhR [6]): has no effect

AhR translocation into the cell nucleus (AhR [4]; HaCaT, in the presence and absence of UVB light): inhibited AhR translocation
AhR translocation into the cell nucleus (AhR [8]): inhibited AhR translocation
Compound: COc1cc(-c2cc(=O)c3ccccc3o2)ccc1[N+](=O)[O-] [3-methoxy-4-nitroflavone]
melanin content versus untreated cells ([7]; 10 μM, 7 days, p<0.05 (FIG. 4)): significantly less melanin

Compound: O=c1cc(-c2ccc(O)c(O)c2)oc2cc(O)cc(O)c12 [luteolin]
action of AhR (AhR [5]): has no effect
action of AhR (AhR [6]): acts as an AhR inhibitor

Compound: O=Cc1c2[nH]c3ccccc3c2cc2[nH]c3ccccc3c12 [FICZ, formylindolo(3,2b)carbazole]
melanin content versus untreated cells ([7]; 2 days with UVB-irradiated 50 mM tryptophan solution containing FICZ, p<0.05 (FIG. 3)): significantly more melanin
AhR translocation into the cell nucleus (AhR [8]): stimulated AhR translocation
